Series [1] in a line: Permeability through the monolayer of Caco-2 cells. To be noted: human; for Papp A→B at 2 h, 10 μM / Papp B→A at 2 h, 10 μM: 2 h at 37° C.; for efflux ratio at 2 h, 10 μM: read-out: efflux (Papp B-A/Papp A-B). In kind it is in vitro ADME. A digest of the protocol: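 Caco-2 monolayers grown 21 days on 0.4 μm transwell filters, integrity checked with Lucifer Yellow. Compounds at 10 μM were added apically at pH 6.5 (A→B) or basolaterally at pH 7.4 with 1% BSA (B→A) and sampled after 2 h. Concentrations by HPLC; Papp calculated, efflux ratio as Papp B-A/Papp A-B.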
Background: Caco-2 cells form a polarised layer with tight junctions and transporters.

Series [2] deals with T1, recombinant Btk kinase enzyme (Homo sapiens, UniProt Q06187).
T1 construct: purchased SignalChem B10-10H
Briefly: In vitro inhibition of Btk kinase activity (ADP-Glo). In kind it is biochemical. The conditions noted are these: Table 8; ADP-Glo; read-out: IC50 kinase BTK. As for the experimental part: To assess Btk kinase activity described herein, SignalChem kinase system was used. Btk kinase activity was determined in the reaction between recombinant Btk kinase enzyme (SignalChem #B10-10H) and Poly (4:1 Glu, Tyr) peptide substrate in the presence of the inhibitor.
Staurosporine (Abcam Biochemicals, ab146588) was used as a reference inhibitor and 0.1% DMSO in the reaction buffer—as a negative control. The solution of 0.5 mg/mL peptide substrate and 50 &M ATP in the same buffer were added; the solution was incubated for 180 minutes at 37° C. To detect the amount of ATP taken up during the kinase reaction, the equivalent amount of ADP (from the ADP Glo Detection Kit (Promega, #V9101)) was used according to the protocol. The reaction mixture was equilibrated to room temperature. 25 µL of ADP-Glo Reagent were added into each well; the plate was incubated for 40 minutes. 50 μL of Kinase Detection Reagent were added; the plate was incubated for 30 minutes. The luminescence was measured with multimode plate reader (Tecan Infinite M200Pro, Switzerland). IC50 values were calculated using Magellan 7.2 software (Tecan, Switzerland) approximating experimental points by four-parameter logistic model with the optimization by Levenberg-Marquardt.

Series [3] relates to Mino (mantle cell lymphoma). Briefly: Antiproliferative activity, Mino cells (Alamar Blue). In kind it is cell-based. The conditions noted are these: Homo sapiens, Table 10, 72 h, average of several tests. A digest of the protocol:
(§1)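 After at least one passage post-thaw, cells were seeded at ≈3*10^4 per well in RPMI-1640 containing 10% FBS. They were treated with compound dilutions (DMSO under 1%) for 72 h and then with Alamar Blue for 14-16 h. Living-cell fluorescence at 540/590 nm gave IC50 values through logistic fitting.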
(Alamar Blue is a resazurin reagent that responds to reducing activity.)

The subject of series [4] is Z-138 (mantle cell lymphoma). Put plainly: Antiproliferative activity, Z-138 cells (Alamar Blue). Type of series: cell-based. The conditions noted are these: Homo sapiens, Table 10, 72 h, average of several tests. A digest of the protocol: as §1
Series [5] concerns DOHH2 (follicular lymphoma). Put plainly: Antiproliferative activity, DOHH2 cells (Alamar Blue). Type of series: cell-based. To be noted: Homo sapiens, DOHH-2, Table 10, 72 h, average of several tests. The method in brief:
as §1

Series [6] in a line: General cytotoxicity on HepG2 cells (CC50; therapeutic index CC50 HepG2/IC50 Mino). In kind it is cell-based. The conditions noted are these: human, HepG2 cells (hepatocellular carcinoma); Table 10; 72 hours, Alamar Blue; average of several tests. The method in brief: (§2)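 Cells seeded at 2*10^4 per well in DMEM, compounds added after 24 h at 200 μM to 4 μM final and incubated 72 h. Viability read with Alamar Blue to derive CC50; therapeutic index is CC50 (HepG2) divided by IC50 (Mino).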

The subject of series [7] is HepG2 cells (hepatocellular carcinoma). The series is described as above. To be noted: Table 10; therapeutic index. Type of series: cell-based. The method in brief:
as §2

A short description of series [8]: Stability in human blood plasma. The conditions noted are these: 10 μM in pooled human blood plasma, incubated 4 hours at 37° C.
The nature of series [9]: Chemical stability in artificial gastric fluid (SGF without enzymes). The conditions noted are these: 10 μM in SGF without enzymes, pH=1.4, 37° C.

In general, Papp A→B refers to how fast a substance crosses the layer from the apical side. Read a low Papp A→B as poor permeation. What is called Papp B→A is how fast a substance crosses the layer from the basolateral side. Usually IC50 stands for the concentration needed to halve the response being measured. The term CC50 denotes the concentration at which the toxic effect on the cells reaches its halfway point.

T1 sequence (Q06187 whole entry): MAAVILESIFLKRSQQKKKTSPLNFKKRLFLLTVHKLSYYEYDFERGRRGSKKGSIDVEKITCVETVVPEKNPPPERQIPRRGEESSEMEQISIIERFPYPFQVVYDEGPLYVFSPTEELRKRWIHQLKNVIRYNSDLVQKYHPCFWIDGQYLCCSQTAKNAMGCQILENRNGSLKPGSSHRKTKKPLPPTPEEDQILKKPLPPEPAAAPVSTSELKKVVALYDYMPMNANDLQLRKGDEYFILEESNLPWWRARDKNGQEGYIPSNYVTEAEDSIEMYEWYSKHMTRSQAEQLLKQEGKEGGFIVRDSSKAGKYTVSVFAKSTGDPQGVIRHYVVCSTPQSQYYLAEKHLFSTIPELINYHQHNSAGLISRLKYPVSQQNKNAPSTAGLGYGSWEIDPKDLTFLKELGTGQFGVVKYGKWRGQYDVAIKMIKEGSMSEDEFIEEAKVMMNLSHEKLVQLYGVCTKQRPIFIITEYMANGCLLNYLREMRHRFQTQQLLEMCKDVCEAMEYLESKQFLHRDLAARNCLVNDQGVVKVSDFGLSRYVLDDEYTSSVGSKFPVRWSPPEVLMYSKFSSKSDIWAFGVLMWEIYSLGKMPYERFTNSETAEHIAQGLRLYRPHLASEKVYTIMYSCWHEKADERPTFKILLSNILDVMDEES

`C=CC(=O)N1CCC[C@@H](n2nc(-c3ccc(Oc4ccncc4C(N)=O)cc3)c3cncc(Cl)c32)C1` [BCD-BTK-203, (R)-4-(4-(1-(1-acryloylpiperidin-3-yl)-7-chloro-1H-pyrazolo[4,3-c]pyridin-3-yl)phenoxy)nicotinamide]: the apparent permeability from apical to basolateral (Papp A→B) at 2 h, 10 μM in series [1] worked out at 9.31 ×10⁻⁶ cm/s. In series [1], this compound displayed a basolateral-to-apical permeability (Papp B→A) at 2 h, 10 μM of 8.4 ×10⁻⁶ cm/s. Further, the efflux ratio at 2 h, 10 μM in [1] was 0.9. Also, the half-maximal inhibitory concentration (IC50) worked out at 1.1 µM in series [2], 13.6 µM in series [3], 16 µM in series [4] and 14 µM in [5]. Besides, it took 61.9 µM to reach half-maximal cytotoxicity in series [6] (CC50 at 72 h). Moreover, the “CC50 (HepG2)/IC50 (Mino)” value in series [7] is 4.55. In addition, the “Amount of substance in the sample, % (stability in human blood plasma)” value in [8] is on record as 84.7%.

In turn, `C=CC(=O)N1CCC[C@@H](n2nc(-c3ccc(Oc4cccnc4C#N)cc3)c3cncc(Cl)c32)C1` [BCD-BTK-218, 3-(4-{7-chloro-1-[1-(prop-2-enoyl)piperidin-3-yl]-1H-pyrazolo[4,3-c]pyridin-3-yl}phenoxy)pyridine-2-carbonitrile] had a Papp A→B at 2 h, 10 μM in series [1] of 20.2 ×10⁻⁶ cm/s. Also, the Papp B→A at 2 h, 10 μM in [1] is 17.4 ×10⁻⁶ cm/s. Also, the efflux ratio at 2 h, 10 μM in series [1] stood at 0.86. For the same compound, the IC50 stood at 0.0555 µM in [2], 1.1 µM in series [3], 8.58 µM in [4] and 3.55 µM in [5]. Also, it took 26.2 µM to reach half-maximal cytotoxicity in [6] (CC50 at 72 h). For the same compound, the “CC50 (HepG2)/IC50 (Mino)” value in [7] was 23.92. Further, in [8], the “Amount of substance in the sample, % (stability in human blood plasma)” value is given as 92.0%.

`C=CC(=O)N1CCC[C@@H](n2nc(-c3ccc(C(=O)Nc4ccc(F)cn4)cc3)c3c(N)ncc(Cl)c32)C1` [BCD-BTK-237, 4-{4-amino-7-chloro-1-[(3R)-1-(prop-2-enoyl)piperidin-3-yl]-1H-pyrazolo[4,3-c]pyridin-3-yl}-N-(5-fluoropyridin-2-yl)benzamide] came in with a Papp A→B at 2 h, 10 μM in [1] of 6.9 ×10⁻⁶ cm/s. Also, in [1], the apparent permeability from basolateral to apical (Papp B→A) at 2 h, 10 μM is 3.5 ×10⁻⁶ cm/s. Besides, in series [1], the efflux ratio at 2 h, 10 μM was 0.5. For the same compound, the IC50 came to 0.0126 µM in [2], 6.25 µM in [3], 6.99 µM in [4] and 3.25 µM in [5]. In addition, in series [6], the CC50 at 72 h amounted to 28.4 µM. In addition, in series [7], the “CC50 (HepG2)/IC50 (Mino)” value was 4.54.

In the case of `C=CC(=O)N1CCC[C@@H](n2nc(-c3ccc(C(=O)Nc4ccccn4)cc3)c3c(N)ncc(Cl)c32)C1` [BCD-BTK-238, 4-{4-amino-7-chloro-1-[(3R)-1-(prop-2-enoyl)piperidin-3-yl]-1H-pyrazolo[4,3-c]pyridin-3-yl}-N-(pyridin-2-yl)benzamide], the apparent permeability from apical to basolateral (Papp A→B) at 2 h, 10 μM in series [1] stood at 6.75 ×10⁻⁶ cm/s. This compound also had a Papp B→A at 2 h, 10 μM in series [1] of 4.78 ×10⁻⁶ cm/s. Besides, in series [1], the efflux ratio at 2 h, 10 μM was determined as 0.71. The IC50 in series [2] came out at 0.0189 µM; in series [3] it was 10.6 µM; in [4] it was 9.44 µM; in series [5], 4.05 µM. Further, in series [6], the 50% cytotoxic concentration (CC50) at 72 h was determined as 24.8 µM. For the same compound, in series [7], the “CC50 (HepG2)/IC50 (Mino)” value is reported as 2.34. For the same compound, in series [9], the “Amount of substance in the sample in % (chemical stability)” value was determined as 100%.

`C=CC(=O)N1CC[C@@H](n2nc(-c3ccc(Oc4ccncc4)cc3)c3cncc(Cl)c32)C1` [BCD-BTK-272, (R)-1-(3-(7-chloro-3-(4-(pyridin-4-yloxy)phenyl)-1H-pyrazolo[4,3-c]pyridin-1-yl)pyrrolidin-1-yl)prop-2-en-1-one] displayed a Papp A→B at 2 h, 10 μM in series [1] of 6.3 ×10⁻⁶ cm/s. The same compound had a basolateral-to-apical permeability (Papp B→A) at 2 h, 10 μM in series [1] of 1.1 ×10⁻⁶ cm/s. Moreover, the efflux ratio at 2 h, 10 μM in series [1] amounted to 0.18. In addition, the IC50 stood at 0.0548 µM in series [2], 6.83 µM in series [3], 14.9 µM in series [4] and 5.23 µM in series [5]. Further, the cytotoxic concentration (CC50) at 72 h in series [6] was found to be 17.6 µM. Also, the “CC50 (HepG2)/IC50 (Mino)” value in [7] amounted to 2.57. Further, the “Amount of substance in the sample in % (chemical stability)” value in series [9] was found to be 100%.

For the origin of these results see US20190352276A1, “INHIBITORS OF BRUTON'S TYROSINE KINASE” (Joint Stock Company "Biocad", priority 2016, published 2019).
